Data on ten molecules can be found in patent publication EP3800188A1, “SUBSTITUTED PYRAZOLOPYRIMIDINES AS IRAK4 INHIBITORS” (Bayer AG, priority 2019, dated 2021).

This assay deals with T1, human IRAK4 (Homo sapiens, UniProt Q9NWZ3).
T1 construct: GST (N); made in house; host or cells: baculovirus-infected Hi5 (BTI-TN-5B1-4) insect cells
T1 sequence (Q9NWZ3 1-460): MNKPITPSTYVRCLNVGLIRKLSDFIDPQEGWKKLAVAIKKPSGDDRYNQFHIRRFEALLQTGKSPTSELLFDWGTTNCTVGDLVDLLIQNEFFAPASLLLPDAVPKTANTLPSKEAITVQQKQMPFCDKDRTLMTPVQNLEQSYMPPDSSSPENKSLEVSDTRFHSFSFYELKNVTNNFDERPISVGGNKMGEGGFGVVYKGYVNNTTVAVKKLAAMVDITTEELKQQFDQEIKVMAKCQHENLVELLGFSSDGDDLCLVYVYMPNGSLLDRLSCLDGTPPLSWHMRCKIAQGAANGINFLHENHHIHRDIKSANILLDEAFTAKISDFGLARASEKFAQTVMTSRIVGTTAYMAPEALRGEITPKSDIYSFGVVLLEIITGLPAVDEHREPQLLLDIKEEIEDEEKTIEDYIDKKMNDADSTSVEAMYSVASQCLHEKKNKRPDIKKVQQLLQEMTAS
Kind of assay: Human IRAK4 kinase activity inhibition assay (IRAK4 TR-FRET assay). The assay is classed as biochemical. The conditions noted are these: 1 mM ATP, GST-human IRAK4, average or median values. The gist of the method: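 Signal was the 665/620 nm emission ratio from a europium anti-mouse-IgG, anti-phosphoserine antibody and streptavidin-XL665 complex formed over 1 h at 22°C. It was scaled between no-enzyme (100%) and no-compound (0%) wells. Beforehand, compounds (20 µM down to 0.073 nM, 11 points) sat 15 min with roughly 0.2 nM insect-cell-expressed GST-human IRAK4 before phosphorylation of a biotinylated peptide substrate.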
Molecule `CN(C)C1CN(c2nc(NC3CC(F)(F)C3)nc3c2cnn3-c2cccc(C(F)(F)F)c2)C1` [Example I-54, N-(3,3-difluorocyclobutyl)-4-[3-(dimethylamino)azetidin-1-yl]-1-[3-(trifluoromethyl)-phenyl]-1H-pyrazolo[3,4-d]pyrimidin-6-amine] returned a 50% inhibitory concentration (IC50) of 297 nM. The result for `CS(=O)(=O)N1CC(Nc2nc(N3C[C@H](O)[C@@H](F)C3)c3cnn(-c4cccc(OC(F)F)c4)c3n2)C1` [IV-6, (3S,4S)-1-(1-[3-(difluoromethoxy)phenyl]-6-{[1-(methylsulfonyl)azetidin-3-yl]amino}-1H-pyrazolo[3,4-d]pyrimidin-4-yl)-4-fluoropyrrolidin-3-ol] reads 193 nM. In the case of `O[C@H]1COC[C@H]1Nc1nc(N2CC(N3CCOCC3)C2)c2cnn(-c3cccc(C(F)(F)F)c3)c2n1` (relative stereo) [Example I-70, rel-(3R,4R)-4-({4-[3-(morpholin-4-yl)azetidin-1-yl]-1-[3-(trifluoromethyl)phenyl]-1H-pyrazolo[3,4-d]pyrimidin-6-yl}amino)tetrahydrofuran-3-ol], the IC50 came to 25 nM. In turn, `CCS(=O)(=O)N1CC(Nc2nc(N3CC(CC(C)(C)O)C3)c3cnn(-c4cccc(C(F)F)c4)c3n2)C1` [II-28, 1-[1-(1-[3-(difluoromethyl)phenyl]-6-{[1-(ethylsulfonyl)azetidin-3-yl]amino}-1H-pyrazolo[3,4-d]pyrimidin-4-yl)azetidin-3-yl]-2-methylpropan-2-ol] returned an IC50 of 40 nM. The molecule `O=C1C[C@H](Nc2nc(N3C[C@H](O)[C@@H](O)C3)c3cnn(-c4cccc(C(F)(F)F)c4)c3n2)CN1` [Example I-20-2, (4S)-4-({4-[(3S,4S)-3,4-dihydroxypyrrolidin-1-yl]-1-[3-(trifluoromethyl)phenyl]-1H-pyrazolo[3,4-d]pyrimidin-6-yl}amino)pyrrolidin-2-one] returned a half-maximal inhibitory concentration (IC50) of 14.9 nM. `O[C@H]1C[C@H](Nc2nc(N3CC(N4CC(F)C4)C3)c3cnn(-c4cccc(C(F)(F)F)c4)c3n2)C1` [Example I-119, trans-3-({4-(3-fluoro[1,3'-biazetidin]-1'-yl)-1-[3-(trifluoromethyl)phenyl]-1H-pyrazolo[3,4-d]pyrimidin-6-yl}amino)cyclobutanol]: the IC50 turned out to be 16.5 nM. The molecule `C[C@]1(O)C[C@H](Nc2nc(N3CC(N4CC(F)C4)C3)c3cnn(-c4cccc(C(F)(F)F)c4)c3n2)C1` [Example I-120, trans-3-({4-(3-fluoro[1,3'-biazetidin]-1'-yl)-1-[3-(trifluoromethyl)phenyl]-1H-pyrazolo[3,4-d]pyrimidin-6-yl}amino)-1-methylcyclobutanol] came in with an IC50 of 16.6 nM.

On to `O=C1COCCN1C1CN(c2nc(N[C@H]3C[C@@H](O)C3)nc3c2cnn3-c2cccc(C(F)(F)F)c2)C1` [Example I-121, 4-(1-{6-[(cis-3-hydroxycyclobutyl)amino]-1-[3-(trifluoromethyl)phenyl]-1H-pyrazolo[3,4-d]pyrimidin-4-yl}azetidin-3-yl)morpholin-3-one], for which half-maximal inhibition (IC50) was put at 3.65 nM. As to `CC(C)(O)C1CCN(c2nc(N[C@@H]3CNC(=O)C3(C)C)nc3c2cnn3-c2cccc(C(F)(F)F)c2)CC1` [Example I-17, (4S)-4-({4-[4-(2-hydroxypropan-2-yl)piperidin-1-yl]-1-[3-(trifluoromethyl)phenyl]-1H-pyrazolo[3,4-d]pyrimidin-6-yl}amino)-3,3-dimethylpyrrolidin-2-one], the half-maximal inhibitory concentration (IC50) worked out at 442 nM.

As to `CN1CC[C@H](Nc2nc(N3CCC(C(C)(C)O)CC3)c3cnn(-c4cccc(C(C)(C)O)c4)c3n2)C1` [VI-1, 2-[1-(1-[3-(2-hydroxypropan-2-yl)phenyl]-6-{[(3S)-1-methylpyrrolidin-3-yl]amino}-1H-pyrazolo[3,4-d]pyrimidin-4-yl)piperidin-4-yl]propan-2-ol], the half-maximal inhibitory concentration (IC50) was 77.3 nM.
